Measured values taken from ChEMBL document CHEMBL4725306, “Discovery of (3S,4S)-3-methyl-3-(4-fluorophenyl)-4-(4-(1,1,1,3,3,3-hexafluoro-2-hydroxyprop-2-yl)phenyl)pyrrolidines as novel RORγt inverse agonists” (Bioorg Med Chem Lett, 2020).

Key:
[1] = Metabolic stability in mouse liver microsomes assessed as parent compound remaining incubated for 10 mins; type: ADME, Microsome; conditions: read-out: Stabilty
PXR = target: T1, PXR (Homo sapiens, UniProt O75469); test: (§1) Activation of PXR (unknown origin) relative to rifampicin; conditions: read-out: %max
T1 sequence (O75469 whole entry): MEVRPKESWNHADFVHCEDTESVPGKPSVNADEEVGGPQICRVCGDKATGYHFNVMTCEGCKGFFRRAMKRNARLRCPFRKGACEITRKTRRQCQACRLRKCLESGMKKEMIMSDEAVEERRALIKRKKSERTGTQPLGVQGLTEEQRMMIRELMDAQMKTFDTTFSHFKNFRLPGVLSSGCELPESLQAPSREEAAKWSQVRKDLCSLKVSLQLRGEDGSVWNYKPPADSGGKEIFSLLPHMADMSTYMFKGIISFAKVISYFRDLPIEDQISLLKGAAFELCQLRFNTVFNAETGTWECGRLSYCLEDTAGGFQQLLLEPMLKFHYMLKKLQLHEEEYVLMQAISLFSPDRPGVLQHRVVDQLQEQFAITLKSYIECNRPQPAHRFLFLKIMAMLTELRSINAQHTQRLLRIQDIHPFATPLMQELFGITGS

[2] = Metabolic stability in human liver microsomes assessed as parent compound remaining incubated for 10 mins; type: ADME, Microsome; conditions: read-out: Stabilty
[3] = target: T2, Nuclear receptor subfamily 1 group I member 2 (Homo sapiens, UniProt O75469); test: Activation of PXR (unknown origin)
T2 sequence (O75469 whole entry): T1 sequence (O75469 whole entry)

[4] = target: T2, Nuclear receptor subfamily 1 group I member 2; test: as §1
[5] = target: T3, Nuclear receptor ROR-gamma (Homo sapiens, UniProt P51449); test: Inverse agonist activity at RORgammat (unknown origin) expressed in Jurkat cells by reporter assay; type: cell-based
T3 sequence (P51449 whole entry): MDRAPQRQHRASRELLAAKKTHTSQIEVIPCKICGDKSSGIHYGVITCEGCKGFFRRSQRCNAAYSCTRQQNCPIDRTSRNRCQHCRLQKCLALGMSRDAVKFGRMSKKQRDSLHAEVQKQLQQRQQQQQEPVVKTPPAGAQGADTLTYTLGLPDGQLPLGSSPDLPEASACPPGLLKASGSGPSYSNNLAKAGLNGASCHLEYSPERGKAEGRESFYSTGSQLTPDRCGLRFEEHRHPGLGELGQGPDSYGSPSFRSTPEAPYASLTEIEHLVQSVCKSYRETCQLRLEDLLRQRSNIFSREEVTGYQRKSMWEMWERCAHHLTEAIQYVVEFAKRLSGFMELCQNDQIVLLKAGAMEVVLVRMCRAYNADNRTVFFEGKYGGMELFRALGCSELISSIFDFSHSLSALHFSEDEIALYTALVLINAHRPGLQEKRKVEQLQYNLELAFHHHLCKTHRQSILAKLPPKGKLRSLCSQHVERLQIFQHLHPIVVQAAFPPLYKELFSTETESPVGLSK

[6] = target: T4, Nuclear receptor ROR-beta (Homo sapiens, UniProt Q92753); test: Inverse agonist activity at ROR-beta (unknown origin) expressed in Jurkat cells by gal4 reporter assay; type: cell-based
T4 sequence (Q92753 whole entry): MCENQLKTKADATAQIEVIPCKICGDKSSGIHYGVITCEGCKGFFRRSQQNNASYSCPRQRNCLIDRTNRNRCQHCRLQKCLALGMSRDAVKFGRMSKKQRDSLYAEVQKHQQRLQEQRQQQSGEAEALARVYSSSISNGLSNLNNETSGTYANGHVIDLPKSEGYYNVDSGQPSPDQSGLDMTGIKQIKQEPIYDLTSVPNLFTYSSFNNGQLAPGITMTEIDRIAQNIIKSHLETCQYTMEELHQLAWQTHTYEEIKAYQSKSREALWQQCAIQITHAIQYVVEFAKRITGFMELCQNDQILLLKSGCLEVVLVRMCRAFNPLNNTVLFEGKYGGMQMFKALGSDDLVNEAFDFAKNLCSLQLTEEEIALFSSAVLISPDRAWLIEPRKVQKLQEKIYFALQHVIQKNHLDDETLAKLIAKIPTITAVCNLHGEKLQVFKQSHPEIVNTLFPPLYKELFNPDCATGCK

[7] = target: T5, Nuclear receptor ROR-alpha (Homo sapiens, UniProt P35398); test: Inverse agonist activity at ROR-alpha (unknown origin) expressed in Jurkat cells by gal4 reporter assay; type: cell-based
T5 sequence (P35398 whole entry): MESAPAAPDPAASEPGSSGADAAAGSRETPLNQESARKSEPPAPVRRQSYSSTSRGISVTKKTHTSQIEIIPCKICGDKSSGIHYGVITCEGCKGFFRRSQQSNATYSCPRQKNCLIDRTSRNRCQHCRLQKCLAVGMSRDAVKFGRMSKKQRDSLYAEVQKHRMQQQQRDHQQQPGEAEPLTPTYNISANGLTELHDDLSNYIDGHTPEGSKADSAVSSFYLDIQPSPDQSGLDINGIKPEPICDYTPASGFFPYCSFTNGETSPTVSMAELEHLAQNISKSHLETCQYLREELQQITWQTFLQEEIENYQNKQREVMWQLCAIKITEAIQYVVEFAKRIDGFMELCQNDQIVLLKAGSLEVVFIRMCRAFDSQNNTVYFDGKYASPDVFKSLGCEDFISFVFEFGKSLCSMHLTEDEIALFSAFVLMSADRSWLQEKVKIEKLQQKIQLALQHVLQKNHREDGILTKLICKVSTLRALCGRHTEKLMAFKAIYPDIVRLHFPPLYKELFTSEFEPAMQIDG

Row | Structure (SMILES) | remaining at 10 min [1] [%] | Emax (PXR) [%] | remaining at 10 min [2] [%] | EC50 [3] [µM] | %max [4] [%] | EC50 [5] [µM] | EC50 [6] [µM] | EC50 [7] [µM]
1 | C[C@@]1(c2ccc(F)cc2)CN(C(=O)NCc2ccccc2)C[C@@H]1c1ccc(C(O)(C(F)(F)F)C(F)(F)F)cc1 | 17 | 80 | 58 | 0.472 |  |  |  | 
2 | CC(=O)N1CCC(C(=O)N2C[C@@H](c3ccc(C(O)(C(F)(F)F)C(F)(F)F)cc3)[C@@](C)(c3ccc(F)cc3)C2)CC1 | 81 | 61 | 86 | 1.08 |  |  |  | 
3 | CC(=O)N1CCC(C(=O)N2C[C@@H](c3ccc(C(F)(C(F)(F)F)C(F)(F)F)cc3)[C@@](C)(c3ccc(F)cc3)C2)CC1 |  | 15 |  | > 50 |  |  |  | 
4 | C[C@]1(c2ccc(F)cc2)CN(C(=O)C2CCN(C(=O)CO)CC2)C[C@H]1c1ccc(C(O)(C(F)(F)F)C(F)(F)F)cc1 | 82 |  | 86 |  |  |  |  | 
5 | C[C@]1(c2ccc(F)cc2)CN(C(=O)NCc2ccncc2)C[C@H]1c1ccc(C(O)(C(F)(F)F)C(F)(F)F)cc1 | 1 |  | 11 |  |  |  |  | 
6 | CC(=O)N1CCC(C(=O)N2C[C@@H](c3ccc(C(O)(C(F)(F)F)C(F)(F)F)cc3)[C@@](C)(c3ccccc3)C2)CC1 | 75 |  | 89 |  |  |  |  | 
7 | C[C@]1(c2ccc(F)cc2)CN(C(=O)NCc2ccccc2)C[C@H]1c1ccc(C(O)(C(F)(F)F)C(F)(F)F)cc1 | 67 |  | 73 | 0.559 | 98 |  |  | 
8 | C[C@]1(c2ccc(F)cc2)CN(C(=O)NCc2ccc(C#N)cc2)C[C@H]1c1ccc(C(O)(C(F)(F)F)C(F)(F)F)cc1 | 51 |  | 76 |  |  | 0.074 |  | 
9 | C[C@]1(c2ccc(F)cc2)CN(C(=O)C2CCN(C(=O)CC#N)CC2)C[C@H]1c1ccc(C(O)(C(F)(F)F)C(F)(F)F)cc1 | 79 | 46 | 80 | 0.495 |  |  | > 40 | > 40
10 | C[C@]1(c2ccc(F)cc2)CN(C(=O)NCc2ccc3c(c2)OCO3)C[C@H]1c1ccc(C(O)(C(F)(F)F)C(F)(F)F)cc1 | 65 |  | 54 |  |  |  |  | 
11 | C[C@]1(c2ccc(F)cc2)CN(C(=O)C2CCN(C(=O)C(N)=O)CC2)C[C@H]1c1ccc(C(O)(C(F)(F)F)C(F)(F)F)cc1 | 87 | 73 | 91 | 0.995 |  |  |  | 
12 | C[C@]1(c2ccc(F)cc2)CN(C(=O)C2CCN(S(C)(=O)=O)CC2)C[C@H]1c1ccc(C(O)(C(F)(F)F)C(F)(F)F)cc1 | 80 | 78 | 90 | 0.151 |  |  |  | 
13 | C[C@]1(c2ccc(F)cc2)CN(C(=O)C2CCN(C(N)=O)CC2)C[C@H]1c1ccc(C(O)(C(F)(F)F)C(F)(F)F)cc1 | 100 | 72 | 97 | 1.06 |  |  |  | 
14 | COCC(=O)N1CCC(C(=O)N2C[C@@H](c3ccc(C(O)(C(F)(F)F)C(F)(F)F)cc3)[C@@](C)(c3ccc(F)cc3)C2)CC1 | 49 | 52 | 54 | 1.55 |  |  |  | 
15 | CCS(=O)(=O)c1ccc(CNC(=O)N2C[C@@H](c3ccc(C(O)(C(F)(F)F)C(F)(F)F)cc3)[C@@](C)(c3ccc(F)cc3)C2)cc1 | 51 | 100 | 32 | 0.005 |  |  |  | 
16 | COc1ccc(CNC(=O)N2C[C@@H](c3ccc(C(O)(C(F)(F)F)C(F)(F)F)cc3)[C@@](C)(c3ccc(F)cc3)C2)cc1 | 67 | 84 | 68 | 0.189 |  |  |  | 
17 | CC(=O)N1CCC(C(=O)N2C[C@H](c3ccc(C(O)(C(F)(F)F)C(F)(F)F)cc3)[C@](C)(c3ccccc3)C2)CC1 | 79 |  | 74 |  |  |  |  | 
18 | CC(=O)N1C[C@@H](c2ccc(C(O)(C(F)(F)F)C(F)(F)F)cc2)[C@@](C)(c2ccccc2)C1 (racemic) |  | 110 |  | 0.361 |  |  |  | 
19 | C[C@]1(c2ccccc2)CN(C(=O)c2ccccc2)C[C@H]1c1ccc(C(O)(C(F)(F)F)C(F)(F)F)cc1 (racemic) |  | 93 |  | 0.74 |  |  |  | 
20 | C[C@]1(c2ccccc2)CN(S(C)(=O)=O)C[C@H]1c1ccc(C(O)(C(F)(F)F)C(F)(F)F)cc1 (racemic) |  | 110 |  | 0.257 |  |  |  | 
21 | C[C@]1(c2ccc(F)cc2)CN(C(=O)NCc2ccccc2)C[C@H]1c1ccc(C(O)(C(F)(F)F)C(F)(F)F)cc1 (racemic) |  | 79 |  | 0.474 |  |  |  | 
22 | C[C@]1(c2ccccc2)CNC[C@H]1c1ccc(C(O)(C(F)(F)F)C(F)(F)F)cc1 (racemic) |  | 39 |  | 1.25 |  | 7.91 |  | 
23 | CCNC(=O)N1C[C@@H](c2ccc(C(O)(C(F)(F)F)C(F)(F)F)cc2)[C@@](C)(c2ccccc2)C1 (racemic) |  | 73 |  | 1.78 |  |  |  | 
24 | C[C@@]1(c2ccc(C(O)(C(F)(F)F)C(F)(F)F)cc2)CN(C(=O)NCc2ccccc2)C[C@@H]1c1ccccc1 (racemic) |  | 84 |  | 0.06 |  |  |  | 
25 | C[C@]1(c2ccccc2)CN(CC(N)=O)C[C@H]1c1ccc(C(O)(C(F)(F)F)C(F)(F)F)cc1 (racemic) |  | 96 |  | 0.276 |  |  |  | 
